For the experiment, the system named is Male Sprague-Dawley rats. Briefly: Reversal of PCP-induced deficit in prepulse inhibition of the acoustic startle response (PPI). The class given is in vivo, rat. As to conditions: for reversal of PCP-induced deficit in PPI, percent PPI averaged for all three prepulse intensities: average of 69, 73 and 81 dB, FIG. 2; for reversal of PCP-induced deficit in PPI, percent PPI averaged for all three prepulse intensities / reversal of PCP-induced deficit in PPI: 50 mg/kg p.o., adult male rats; for effect on pre-pulse inhibition: 10 and 50 mg/kg p.o. 45 min before PCP 2.5 mg/kg i.p.; for reversal of PCP-induced deficit in PPI: prepulse intensity 73 dB, FIG. 1. Here is the method:
Male Sprague-Dawley rats weighing 210-250 g at time of experiment were used. Animals were housed in a temperature and humidity controlled environment and allowed free access to food and water prior to use.
The amplitude of the inherent startle response varies considerably from animal to animal. The gain of the platforms must be calibrated to ensure that the average startle waveform falls within the desired range. To this end, baseline studies were conducted before the full PPI protocol to allow the calibration of the platforms to be fine-tuned to the startle waveform amplitude. This also allows the animals to become acclimatised to the testing equipment prior to drug administration.
Animals were placed in restraining holders and transferred to the designated chamber. Once all holders were securely fastened to the platform, the Baseline protocol was started. This consists of: • Acclimation Period: Animals were exposed to 5 minutes of 65 decibel (dB) background noise (white noise). • Block 1: 10× startle stimulus alone (white noise, 120 dB, 40 ms) • Block 2: 6× startle stimulus alone • 6× pre-pulse plus startle stimulus (pure tone, 16 dB above background noise, • 20 ms) followed 100 ms later by the startle stimulus. • During this time, the amplitude of the startle responses was recorded. On completion of this protocol, the sensitivity of the equipment was re-calibrated where necessary by adjusting the gain settings.
The same group of rats was again subjected to the Baseline protocol described above. Again, on completion of this protocol, the sensitivity of the equipment was re-calibrated where necessary by adjusting the gain settings. […] These animals were then returned to their home cages for subsequent dosing with compound.
The study compounds were suspended from dry powder stocks in Vehicle (5% Tween 80/5% PEG/saline) and sonicated for 60 minutes at 37° C. to generate suspensions suitable for oral dosing. Control rats received Vehicle by oral gavage. PCP was dissolved in sterile saline (0.9% NaCl).
Rats were dosed with either saline (0.9% NaCl) or 2.5 mg/kg PCP by intraperitoneal injection 15 minutes prior to PPI testing.
(2 S)-2-(2-Bromo-3-oxo-spiro[3.5]non-1-en-1-ylamino)-3-[4-([2,7]naphthyridin-1-ylamino)phenyl]proprionic acid or Clozapine was administered orally by gavage 45 minutes before challenge with PCP or saline. (2S)-2-(2-Bromo-3-oxo-spiro[3.5]non-1-en-1-ylamino)-3-[4-([2,7]naphthyridin-1-ylamino)phenyl]proprionic acid was administered at 10 mg/kg and 50 mg/kg. Clozapine was administered at 5 mg/kg. Vehicle control rats received Vehicle (5% Tween 80/5% PEG/saline) by oral gavage 45 minutes before challenge with PCP or saline.
Exactly 15 minutes after the injection of PCP or saline, the full PPI protocol was started. Animals were exposed to 5 minutes of 65 dB background noise (white noise) as an acclimation period, before the acoustic stimuli began. • Block 1: 6× startle stimulus alone (white noise, 120 dB, 40 ms) • Block 2: 14× startle stimulus • 8× no pulse • 30× pre-pulse (10 each of 4, 8, and 16 dB above the background noise) followed 100 ms later by the startle stimulus. This corresponds to intensities of 69, 73 and 81 dB, respectively. A total of 52 trials were presented to the animals in this block in a pseudo-random order with a variable interval of 8 to 23 seconds, averaging 15 s between trials). • Block 3: 6× startle stimulus alone
Pre-pulse inhibition was calculated from trials in Block 2 by the following formula:
% PPI=(100×[(pulse alone score)−(prepulse+pulse score)]/pulse alone

For `O=C(O)[C@H](Cc1ccc(Nc2nccc3ccncc23)cc1)NC1=C(Br)C(=O)C12CCCCC2` [(2S)-2-(2-Bromo-3-oxo-spiro[3.5]non-1-en-1-ylamino)-3-[4-([2,7]naphthyridin-1-ylamino)phenyl]proprionic acid], the “reversal of PCP-induced deficit in PPI, percent PPI averaged for all three prepulse intensities” value runs as follows: (50 mg/kg) “reversal”; (listed as MGCD-0103, 50 mg/kg) “significantly (p<0.05) reversed”. Also, the “effect on pre-pulse inhibition” value by setting is: (prepulse intensity 69 dB (4 dB above background), rats) “did not have a statistically significant effect”; (prepulse intensity 81 dB (16 dB above background), rats) “did not have a statistically significant effect”. Besides, the “ability to attenuate the PCP-induced deficit in PPI” value (prepulse intensity 73 dB (8 dB above background), dose not specified (10 and 50 mg/kg p.o. tested), rats) is “more evident”. Further, the “reversal of PCP-induced deficit in PPI” value runs as follows: (50 mg/kg) “reversal”; (listed as MGCD-0103, 50 mg/kg) “significantly (p<0.05) reversed”.

(Values after patent publication US20140357654A1, “METHODS OF TREATING SCHIZOPHRENIA WITH PHENYLALANINE ENAMIDE DERIVATIVE INHIBITORS OF a4 INTEGRIN POSSESSING A CYCLOBUTENE GROUP” (AESTUS THERAPEUTICS, INC., priority 2011, published 2014).)
